From article PMC8227935, “In Silico Predicted Antifungal Peptides: In Vitro and In Vivo Anti-Candida Activity” (Journal of Fungi, 2021)
pEC50: −log10 of the molar value. No end group written: not given here.

How the values were obtained:
C. albicans SC5314 [1] = type: cell-based, Candida albicans
Experimental: The candidacidal activity of ISDPs was evaluated by conventional colony forming unit (CFU) assays, as previously described. ISDPs were tested at serial dilutions to determine the half maximal effective concentration (EC50) values. Briefly, approximately 500 germinating C. albicans SC5314 cells were suspended in 100 µL of distilled water in the presence or absence (control growth) of ISDPs. After incubation at 37 °C for 6 h, cell suspensions were plated on Sabouraud dextrose agar. CFUs were enumerated after 48–72 h of incubation at 30 °C, and candidacidal activity was determined as a percentage of CFU reduction. Each assay was carried out in triplicate and at least two independent experiments were performed for each condition. EC50 was calculated by nonlinear regression analysis using GraphPad Prism 5 software. Afterwards, the kinetics of ISDPs killing activity, at their 2× EC50 value concentration, was determined by CFU assays up to 6 h. Samples were collected for CFU determination after 5, 10, 15, 20, 30, 60, 120, 240, and 360 min incubation.
Figure 1 Time kinetics of in vitro activity of in silico designed peptides (ISDPs) against Candida albicans SC5314. Peptide concentrations were equal to their 2× EC50 values. The activity is expressed as percental killing; reported data represent mean values ± standard deviation.

[2] = system: monkey kidney epithelial cells (LLC-MK2); assay: MTT cytotoxicity assay; type: cell-based; conditions: 200 µM peptide, 24 h, vs. 100% of untreated control cells
Experimental: MTT assay, based on the ability of metabolically active cells to convert the yellow water-soluble tetrazolium salt into formazan crystals, was used to evaluate peptide cytotoxicity against monkey kidney epithelial cells (LLC-MK2). LLC-MK2 cells were treated with ISDPs (50, 100, and 200 µM) for 24 h. Cells in medium without peptide served as control. After this period, cells were incubated with MTT (5 mg/mL, 10 μL/well) in serum-free medium for 2 h at 37 °C, the medium was removed, and the crystal formazan dye was solubilized by adding isopropanol with 5% HCl 1 M (100 μL). Absorbance was measured at 540 nm.

[3] = system: human red blood cells (hRBCs); assay: Hemolytic activity, hemoglobin release; type: cell-based; conditions: human red blood cells (group 0 Rh+), 50 µM peptide, 37 °C, absorbance 540 nm, PBS 0%, Triton 1% 100%
Experimental: Hemolytic and cytotoxic effects were determined as previously described. In particular, ISDPs (final concentrations of 25, 50, and 100 µM) were tested for their hemolytic activities against human red blood cells (hRBCs) (group 0 Rh+). After 30 and 120 min incubation at 37 °C, the release of hemoglobin was monitored by measuring the absorbance of the supernatant at 540 nm. Controls for zero hemolysis (blank) and 100% hemolysis consisted of hRBCs suspended in PBS and Triton 1%, respectively.

C. albicans SC5314 [4] = conditions: C. albicans SC5314, CFU assay; EC50 of K10S parent peptide; read-out: EC50 (95% Confidence Intervals); cited from earlier work
Text: Table 3 In vitro candidacidal activity of in silico designed peptides (ISDPs) against C. albicans SC5314. | column: EC50 ^1 (95% Confidence Intervals)

C. albicans SC5314 cells = conditions: parent peptide K10S; cited from earlier work
Text: The individual amino acid substitutions also influenced the possible mechanism of action of the peptides. […] All ISDPs were characterized by the ability to induce intracellular ROS production (Figure 5).

C. albicans SC5314 [5] = conditions: C. albicans SC5314, parent K10S peptide; cited from earlier work
Experimental: Candidacidal activity of all tested peptides was very fast. After 30 min, in fact, percental killing ranged from 68% (K10S-SS) to nearly 100% (R-10S-RR and K10S-I).

C. albicans SC5314 [6] = conditions: G. mellonella larvae infected with C. albicans, treated with parent K10S peptide; controls 24 h; previous work; cited from earlier work
Experimental: Therapeutic activity of ISDPs against C. albicans infection was evaluated in G. mellonella larvae. After the inoculum of a lethal dose of yeast cells, a single injection of peptides led to a significant increase in survival of larvae in comparison with infected animals inoculated with saline. The median survival time was 48 h for larvae treated with R10S-RR and K10S-I, and 24 h for larvae treated with K10T-TT and K10S-SS, versus 24 h for the control group. In a previous work, a median survival time of 72 h was reported for larvae treated with the parent K10S peptide in comparison with 24 h for ...

Sequence	percental killing after 30 min (C. albicans SC5314 [1]) [%]	cell viability [2] [%]	hemolysis ([3]; 30 min) [%]	hemolysis ([3]; 120 min) [%]	pEC50 (C. albicans SC5314 [4])	apoptosis induction (C. albicans SC5314 cells)	percental killing at 30 min (C. albicans SC5314 [5]) [%]	median survival time (C. albicans SC5314 [6]) [h]
KKVSMSCSAS [Peptide K10S-SS]	68	92.5 ± 0.11	2.38	2.01	–	–	–	–
KKVTMTCSAS [Peptide K10S]	–	–	–	–	6.56	lack of induction of apoptotic processes	36.93	72
